As usually defined, the IC50 is the concentration that inhibits the measured activity by half. Read a high IC50 as weaker potency in that assay.

In one assay the test system is cultured human mast cells (CHMC). Kind of assay: CHMC low cell density IgE activation: tryptase assay. The format is cell-based. Conditions: Homo sapiens, Mast cell, anti-IgE. How it is done:
Pellet CHMC cells (980 rpm, 10 min) and resuspend in pre-warmed MT. Add 65 ul of cells to each 96-well plate. Depending on the degranulation activity for each particular CHMC donor, load 1000-1500 cells/well. Mix four times followed by a 1 hr incubation at 37° C. […] Stimulate cells by adding 25 ul of 6× anti-IgE solution to the appropriate plates. Add 25 ul MT to un-stimulated control wells. Mix twice following addition of the anti-IgE. Incubate at 37° C. for 30 minutes. […] Spin plates at 1000 rpm for 10 min to pellet cells. Transfer 25 ul of supernatant to a 96-well black bottom plate and add 100 ul of freshly diluted tryptase substrate solution to each well. Incubate plates at room temperature for 30 min.
Molecule `O=C(O)Cc1cccc(Nc2ncc(F)c(Nc3cccc(CC(=O)O)c3)n2)c1` [R935117] returned an IC50 above 10 µM.

Staying with this assay, now noted: anti-IgE.
For the molecule `CNC(=O)COc1cccc(Nc2ncc(F)c(Nc3ccc(OC)c(CN4CCOCC4)c3)n2)c1` [R940314, 5-Fluoro-N2-[3-(methylaminocarbonylmethyleneoxy)phenyl]-N4-[3-(N-morpholinomethylene)-4-methoxyphenyl]-2,4-pyrimidinediamine], the IC50 was 4.2 µM. `CC1(C)CN(c2ccccn2)c2cc(Nc3nc(Cl)ncc3F)ccc2O1` [Compound R940336] had a half-inhibitory concentration (IC50) above 10 µM. As for `CCOc1ccc(Nc2nc(Nc3cccc(OCC(=O)NC)c3)ncc2F)cc1N` [R950388, N4-(3-Amino-4-ethoxyphenyl)-5-fluoro-N2-[3-(N-methylamino)carbonylmethyleneoxyphenyl]-2,4-pyrimidinediamine], the IC50 is 2.52 µM. In turn, `Cc1ccnc(Nc2nc(Cl)ncc2F)c1` [Compound R920401] gave an IC50 above 10 µM. The same measure, in the same setting: the result for `CNC(=O)COc1cccc(Nc2ncc(F)c(Nc3ccc(OC)c(CO)c3)n2)c1` [R950386, N4-(3-Hydroxymethylen-4-methoxyphenyl)-5-fluoro-N2-[3-(N-methylamino)carbonylmethyleneoxyphenyl]-2,4-pyrimidinediamine] reads 0.973 µM; that for `CNC(=O)COc1cccc(Nc2ncc(F)c(Nc3ccc4c(c3)N(C(=N)N)CCO4)n2)c1` [R909292, N4-(4N-Carboxamidino-1,4-benzoxazin-6-yl)-5-fluoro-N2-[3-(N-methylamino)carbonylmethyleneoxyphenyl]-2,4-pyrimidinediamine], 1.17 µM; that for `Fc1cnc(Cl)nc1Nc1ccc2c(c1)OC(F)(F)O2` [Compound R920403], above 10 µM.

`CC(=O)Nc1cccc(N(C(C)=O)c2nc(N(C(C)=O)c3cccc(N(C(C)=O)C(C)=O)c3)ncc2F)c1` [R950246, N4-(3-N-Acetylaminophenyl)-N2-(3-N,N-diacetylaminopheny)-5-fluoro-N2,N4-pyrimidinediacetylamine]: the IC50 was above 10 µM. The same measure, in the same setting: the result for `CNC(=O)COc1cccc(Nc2ncc(F)c(Nc3cccc(SC(F)(F)F)c3)n2)c1` [R926925, 5-Fluoro-N2-[3-[(N-methylamino)carbonylmethyleneoxy]phenyl]-N4-(3-trifluoromethylthiophenyl)-2,4-pyrimidinediamine] reads 0.307 µM.

The molecule `O=[N+]([O-])c1ccc(NCCO)c(Nc2ccnc(Nc3cc([N+](=O)[O-])ccc3NCCO)n2)c1` [R950156, N2,N4-Bis(2-hydroxyethyleneamino-5-nitrophenyl)-2,4-pyrimidinediamine] registered an IC50 above 10 µM.

As to `Oc1cccc(Nc2ncc(F)c(Nc3ccc4[nH]ncc4c3)n2)c1` [R935268, 5-Fluoro-N2-(3-hydroxyphenyl)-N4-(indazoline-5-yl)-2,4-pyrimidinediamine], the IC50 worked out at 1.06 µM.

`COc1cc(Nc2nc(Nc3cccc(O)c3)ncc2F)c(OC)cc1Cl` [R926860, N4-(4-Chloro-2,5-dimethoxyphenyl)-5-fluoro-N2-(3-hydroxyphenyl)-2,4-primidinediamine] had an IC50 of 1.95 µM. Same read-out and setting: under `CNC(=O)COc1cccc(Nc2ncc(F)c(Nc3ccc(OC)c(CN(C(=O)OC(C)(C)C)C(C)C)c3)n2)c1` [R940319, N4-(3-(N-tert-Butoxycarbonyl-N-iso-propylaminomethylene)-4-methoxyphenyl)-5-fluoro-N2-[3-(methylaminocarbonylmethyleneoxy)phenyl]-2,4-pyrimidinediamine] stands above 10 µM. For the molecule `COc1ccc(Nc2nc(Nc3cc(C)c(O)c(Cl)c3)ncc2F)cc1CN1CCOCC1` [R940316, N2-(3-Chloro-4-hydroxy-5-methylphenyl)-5-fluoro-N4-[3-(N-morpholinomethylene)-4-methoxyphenyl]-2,4-pyrimidinediamine], the IC50 worked out at 1.86 µM.

As to `Fc1cnc(Cl)nc1Nc1ccc(OC(F)(F)F)cc1` [Compound R926875], the 50% inhibitory concentration (IC50) is above 10 µM.

In turn, `COC(=O)C1Cc2cc(Nc3ncc(F)c(Nc4ccc(OCCO)nc4)n3)ccc2O1` (racemic) [R927025, (±)-N2-(2,3-Dihydro-2-methoxycarbonylbenzofuran-5-yl)-5-fluoro-N4-[2-(2-hydroxyethyleneoxy)pyridin-5-yl]-5-fluoro-2,4-pyrimidinediamine] gave an IC50 of 0.326 µM. `Fc1cnc(Cl)nc1Nc1ccc(C(F)(F)F)cc1` [Compound R926876] came in with an IC50 above 10 µM.

In the case of `COC(=O)c1cc2cc(Nc3ncc(F)c(Nc4ccc5c(c4)NC(=O)C(C)(C)O5)n3)ccc2o1` [R940354, N4-[(2,2-Dimethyl-4H-benzo[1,4]oxazin-3-one)-6-yl]-5-fluoro-N2-(2-methoxycarbonylbenzofur-5-yl)-2,4-pyrimidinediamine], the IC50 was determined as 0.115 µM. Same read-out and setting: the result for `CNC(=O)COc1cccc(Nc2ncc(F)c(Nc3ccc4c(c3)C(=O)CCO4)n2)c1` [R950345, N4-(2,3-Dihydro-4-benzypyranon-6-yl)-5-fluoro-N2-[3-(N-methylamino)carbonylmethyleneoxyphenyl]-2,4-pyrimidinediamine] reads 1.96 µM; that for `CC1(C)Oc2cc(Nc3nc(Cl)ncc3F)cnc2NC1=O` [Compound R940344], above 10 µM.

For `CCOC(=O)C(C)(C)Oc1cccc(Nc2ncc(F)c(Nc3ccc4cc[nH]c4c3)n2)c1` [R926909, N2-[3-(Ethoxycarbonyl-1,1-dimethylmethyleneoxy)phenyl]-5-fluoro-N4-[(1H)-indol-6-yl]-2,4-pyrimidinediamine], the IC50 amounted to 0.379 µM. On the same count and under the same terms, under `O=C(COc1cccc(Nc2ncc(F)c(Nc3cccc(O)c3)n2)c1)N1CCNCC1` [R926772, 5-Fluoro-N4-(3-hydroxyphenyl)-N2-[3-(N-piperazino)carbonylmethyleneoxyphenyl]-2,4-pyrimidinediamine] stands 0.337 µM; under `CNC(=O)COc1cccc(Nc2ncc(F)c(Nc3ccc(C#N)c(C)c3)n2)c1` [R926851, N4-(4-Cyano-3-methylphenyl)-5-fluoro-N2-[3-(N-methylamino)carbonylmethyleneoxyphenyl]-2,4-pyrimidinediamine], 0.446 µM; under `C[C@H](Nc1ncc(F)c(N[C@@H](C)[C@H](O)c2ccccc2)n1)[C@H](O)c1ccccc1` [R925767, N2,N4-Bis[(2R)-hydroxy-(1S)-methyl-2-phenylethyl]-5-fluoro-2,4-pyrimidinediamine], 10 µM. Consider “N2-(N-Ethylcarbonylmethyleneoxy-1,4-benzoxazin-6-yl)-5-fluoro-N2-[3-hydroxyphenyl)phenyl]pyrimidinediamine [R908734]”, for which the midpoint of inhibition, the IC50, lay at 1.38 µM.

For the molecule `COc1cc(C(=O)NS(=O)(=O)c2ccccc2C)ccc1Cn1ncc2ccc(Nc3ncc(F)c(Nc4cccc(O)c4)n3)cc21` [R935324, 5-Fluoro-N4-(3-hydroxyphenyl)-N2-[1-[2-methoxy-4-(o-toluylsulfonamidocarboxy)benzyl]indazoline-6-yl]-2,4-pyrimidinediamine], the IC50 was above 10 µM. On the same count and under the same terms, the result for `CCOC(=O)C(C)(C)Oc1cccc(Nc2ncc(F)c(Nc3ccc(C)c(O)c3)n2)c1` [R926908, N2-[3-(Ethoxycarbonyl-1,1-dimethylmethyleneoxy)phenyl]-5-fluoro-N4-(3-hydroxy-4-methylphenyl)-2,4-pyrimidinediamine] reads 0.585 µM; that for `CC(C)Oc1ccc(Nc2nc(Nc3ccc4nn(C)cc4c3)ncc2F)cc1` [R935298, 5-Fluoro-N4-(4-isopropoxyphenyl)-N2-(2-methyl-indazoline-5-yl)-2,4-pyrimidinediamine], 0.252 µM; that for `CC(=O)N(C(C)=O)c1cccc(N(C(C)=O)c2ncc(F)c(N(C(C)=O)c3cccc(N(C(C)=O)C(C)=O)c3)n2)c1` [R950247, N2,N4-Bis(3-N,N-diacetylaminophenyl)-5-fluoro-N2,N4-pyrimidinediacetylamine], above 10 µM.

`O=C(O)COc1cccc(Nc2ncc(F)c(Nc3ccc4c(c3)OCCO4)n2)c1` [R926483, N2-(3-Carboxymethyleneoxyphenyl)-N4-(3,4-ethylenedioxyphenyl)-5-fluoro-2,4-pyrimidinediamine] displayed a concentration for half-maximal inhibition (IC50) above 10 µM.

`Fc1cnc(Cl)nc1Nc1ccc(Cl)c(C(F)(F)F)c1` [Compound R926877] had an IC50 above 10 µM. Still for that read-out and setting: under “N4-[3-(2-(N4-(3-aminomethylenephenyl)-5-fluoro-4-pyrimidineamine)-N-methylaminomethylene)-phenyl]-5-fluoro-N2-[3-(methylaminocarbonylmethyleneoxy)phenyl]-2,4-pyrimidineamine [R940311]” stands 1.95 µM. Same read-out and setting: under “N4-(1,4-Benzoxazin-7-yl)-5-fluoro-N2-(3-hydroxyphenyl)-pyrimidinediamine [R908711]” stands 1.76 µM; under `COc1cc(C(=O)NS(=O)(=O)c2ccccc2C)ccc1Cn1ncc2cc(Nc3ncc(F)c(Nc4cccc(O)c4)n3)ccc21` [R935340, 5-Fluoro-N4-(3-hydroxyphenyl)-N2-[1-[2-methoxy-4-(o-toluylsulfonamidocarboxy)benzyl]indazoline-5-yl]-2,4-pyrimidinediamine], 3.61 µM; under `CCOC(=O)CCn1ncc2cc(Nc3nc(Nc4ccc(OC(C)C)cc4)ncc3F)ccc21` [R935306, N4-[1-(2-Ethoxycarbonylethyl)indazoline-5-yl]-5-fluoro-N2-(4-isopropoxyphenyl)-2,4-pyrimidinediamine], 0.345 µM.

In the case of `CNC(=O)COc1cccc(Nc2ncc(F)c(Nc3ccc(OC)c(C(=O)NC(C)C)c3)n2)c1` [R940312, 5-Fluoro-N2-[3-(methylaminocarbonylmethyleneoxy)phenyl]-N4-(3-iso-propylaminocarbonyl-4-methoxyphenyl)-2,4-pyrimidinediamine], 2.56 µM corresponded to half-maximal inhibition (IC50). The same measure, in the same setting: under `CCOC(=O)C=C1NN=C(c2cccc(Nc3nc(Cl)ncc3F)c2)O1` [Compound R926873] stands above 10 µM.
